Like-named read-outs stand apart in the source and are kept apart here. A value given as a limit tells only on which side of the number the result lay.

Experimental findings from patent US4045433A, “1,3,4,5-Tetrahydro-2H-1,4-benzodiazepin-2-ones” (priority 1974, dated 1977) are described below.

The test system of data set [1] is CFLP mice. In words: Antimetrazole activity (protection from tonic extensor spasm). To be noted: 1 hour before test, metrazole 125 mg./kg. s.c.; for ED50: Mus musculus, 1 h. The data set is classed as in vivo. As to the method: 1. The first series of examinations was carried out according to the method of Everett and Richards (Everett G. M., Richards R. K.: J. Pharm. Exp. Ther. 81, 402 (1944)). 125 mg./kg. of metrazole were administered subcutaneously to the test animals. 1 hour after the administration the animals protected from tonic extensor spasm and the surviving animals were counted.

Data set [2] is described as follows: Acute toxicity. The data set is classed as in vivo, CFLP mice. To be noted: mouse, in vivo, death rate observed for one week.
Data set [3] deals with CFLP mice. The data set can be described thus: Hexobarbital narcosis potentiating effect. It is filed as in vivo. To be noted: screen test, i.p., 1 hour before hexobarbital 60 mg./kg. into tail vein; change of sleeping period related to controls. The protocol: The hexobarbital narcosis potentiating effect was determined by the method of Rumke et al. (Arch. Int. […]. The change of sleeping period was expressed in percent related to the controls.

Data set [4] can be described thus: Rotarod test (muscle incoordination and ataxia). To be noted: mouse, in vivo, 1 hour before test. The data set is classed as in vivo, CFLP mice. As to the method: (§1) a. Rotarod test: The test was carried out according to the method of Kinnard and Carr (Brit. J. Pharmacol. Exp. Ther. 121, 354 (1957)). […] The ED50 values were calculated from the percentage of the animals falling down within 120 sec.

The test system of data set [5] is CFLP mice. The data set can be described thus: Maximum electroshock (anti-electroshock activity). The data set is classed as in vivo. To be noted: 1 hour before test; for ED50: Mus musculus, 1 h. An excerpt:
2. Maximum electroshock stimulus (100 Hz, 30 V, 0.2 sec.) was applied according to the method of Swinyard et al. (Swinyard E. A., Brown W. C., Goodman, L. S.: J. Pharmacol. 106, 319 (1952)). The animals showing no tonix extension on the hind limb upon stimulus were considered as protected.

For data set [6], the system named is CFLP mice. The data set can be described thus: Acute toxicity. The data set is classed as in vivo. To be noted: i.p.; death rate observed for one week; 10080 min.
For data set [7], the system named is CFLP mice. In words: Rotarod test (muscle incoordination and ataxia). The note with it: for Rotarod ED50 : Antimetrazole ED50: ratio (1) of Table 2, p.o. The data set is classed as in vivo. As to the method: as §1
In data set [8] the test system is CFLP mice. In words: Narcosis potentiating effect (sodium barbiturate). It is filed as in vivo. The note with it: for ED50: Mus musculus, po, 1 hour before sodium barbiturate 100 mg./kg. i.p.; for Narcosis potentiation ED50 : Antimetrazole ED50: ratio (3) of Table 2, p.o.
Data set [9] has as its system CFLP mice. The data set can be described thus: Disappearance of righting reflex. It is filed as in vivo. The note with it: Mus musculus, po.
Data set [10] can be described thus: Traction test (muscle incoordination and ataxia). To be noted: mouse, in vivo, po, 1 hour before test; read-out: Traction test ED50. Details: species or system CFLP mice. The protocol: b. Traction test: The test was carried out according to the method of Theobald et al. (Arch. int. Pharmacodyn. 148, 560 (1964)). The two anterior limbs of the test animals were placed onto a horizontal rod so as to let the animals clutch the rod. […] The ED50 values were calculated from the percentage of the animals showing negative response.

Data set [11] deals with CFLP mice. The data set can be described thus: Antagonism of strychnine spasm. The data set is classed as in vivo. To be noted: for ED50: Mus musculus, po, 1 h, read-out: Antistrychnine activity ED50; for Antistrychnine ED50 : Antimetrazole: ratio (2) of Table 2, p.o. The protocol: Tonic extensor spasm was produced by administering an intraperitoneal dosage of 2 mg./kg. of strychnine to the animals (Kerley T. L., Richards A. G., Begley, R. W., Abren, B. E. and Weaver, L. C: J. Pharmacol. Exp. Ther. 132, 360 (1961)). The animals showing no spasm were considered as protected.

[12] abbreviates: ip, screen test, i.p., read-out: Antimetrazole ED50.
Where [13] appears, read: ip, screen test, i.p., read-out: Rotarod ED50.
[14] abbreviates: ip, screen test, i.p., read-out: Anti-electroshock ED50 ip.
The mark [15] stands for this setting: po, p.o., 95% confidence limit in next line, read-out: Antimetrazole activity ED50.
[16] abbreviates: po, p.o., 100 Hz, 30 V, 0.2 sec., read-out: Anti-electroshock activity ED50.

`CN1C(=O)CN(C(N)=O)C(c2ccccc2)c2cc(Cl)ccc21` (single isomer, unassigned; (+)) [Example 55, (+)-1-Methyl-4-carbamoyl-5-phenyl-7-chloro-1,3,4,5-tetrahydro-2H-1,4-benzodiazepine-2-one]: the ED50 in data set [1] (setting [12]) was determined as 1.65 mg/kg; in data set [5] (setting [14]), 10 mg/kg. Also, the LD50 at 168 h in data set [2] (ip, read-out: LD50 i.p.) came out at 611 mg/kg. Moreover, the “Hexobarbital potentiation, %” value in data set [3] is given as 368%. Moreover, in [4] (setting [13]), the TD50 at 1 h is 7 mg/kg.
For the compound `CN1C(=O)CN(C(N)=O)C(c2ccccc2)c2cc(Cl)ccc21` (single isomer, unassigned; (-)) [Example 56, (-)-1-Methyl-4-carbamoyl-5-phenyl-7-chloro-1,3,4,5-tetrahydro-2H-1,4-benzodiazepine-2-one], the “Antimetrazole ED50” value in data set [1] (screen test, i.p., 60 min) turned out to be 2.2 mg/kg. The compound further had an LD50 i.p. in [6] of 661.2 mg/kg. Also, the “Hexobarbital potentiation, %” value in data set [3] was 112%. Further, the “Rotarod ED50” value in data set [7] (screen test, i.p., 1 hour before test, 60 min) is 13.0 mg/kg. Moreover, the “Anti-electroshock ED50 ip.” value in [5] (screen test, i.p., 60 min) was determined as 8.4 mg/kg.
With `CNC1=Nc2ccc(Cl)cc2C(c2ccccc2)=[N+]([O-])C1` [Chlorodiazepoxide, reference compound], the ED50 amounted to 2.47 mg/kg in data set [1] (setting [15]); 8.1 mg/kg in data set [8]; 436 mg/kg in data set [9]; 23.5 mg/kg in [5] (setting [16]); 28.4 mg/kg in data set [11]. For the same compound, the “Narcosis potentiation ED50 : Antimetrazole ED50” value in [8] is recorded as 3.3. Moreover, the LD50 at 168 h in data set [2] (po, read-out: Acute toxicity (LD50)) is 850 mg/kg. Besides, the TD50 at 1 h in data set [4] (po, 12/min., 120 sec., read-out: Rotarod test ED50) is 12.2 mg/kg; in data set [10] it was 31.2 mg/kg. For the same compound, the “Rotarod ED50 : Antimetrazole ED50” value in data set [7] came to 4.9. In addition, in [11], the “Antistrychnine ED50 : Antimetrazole” value is on record as 11.5.
As for `CN1C(=O)CN=C(c2ccccc2)c2cc(Cl)ccc21` [Diazepam], the ED50 in data set [1] (setting [15]) was found to be 0.75 mg/kg; in data set [8], 3.9 mg/kg; in data set [9], 238 mg/kg; in data set [5] (setting [16]), 8.29 mg/kg; in data set [11], 5.71 mg/kg. For the same compound, the “Narcosis potentiation ED50 : Antimetrazole ED50” value in data set [8] is given as 5.2. The “Rotarod ED50 : Antimetrazole ED50” value in data set [7] stood at 4.3. Moreover, the “Antistrychnine ED50 : Antimetrazole” value in [11] is reported as 7.6.
`CCOC(=O)N1CC(=O)Nc2ccc([N+](=O)[O-])cc2C1c1ccccc1` (centres unmarked) [Example 2, 4-Ethoxycarbonyl-5-phenyl-7-nitro-1,3,4,5-tetrahydro-2H-1,4-benzodiazepine-2-one]: the results for the ED50 in [1] (setting [12]) and in data set [5] (setting [14]) were 12.5 mg/kg and 14 mg/kg, respectively. Besides, the LD50 at 168 h in data set [2] (ip, read-out: LD50 i.p.) was more than 1600 mg/kg. In addition, the “Hexobarbital potentiation, %” value in data set [3] turned out to be 168%.
Turning to `NC(=O)N1CC(=O)Nc2ccc(Cl)cc2C1c1ccccc1` (centres unmarked) [Example 13, 4-Carbamoyl-5-phenyl-7-chloro-1,3,4,5-tetrahydro-2H-1,4-benzodiazepine-2-on], the figures for the ED50 in data set [1] (setting [12]) and in [5] (setting [14]) were 4.9 mg/kg and 14 mg/kg, respectively. The LD50 at 168 h in data set [2] (ip, read-out: LD50 i.p.) was 367 mg/kg. Also, the “Hexobarbital potentiation, %” value in [3] is given as 89%. Besides, the TD50 at 1 h in data set [4] (setting [13]) is 13.5 mg/kg.
For `CNC(=O)N1CC(=O)Nc2ccc([N+](=O)[O-])cc2C1c1ccccc1` (centres unmarked) [Example 14, 4-Methylcarbamoyl-5-phenyl-7-nitro-1,3,4,5-tetrahydro-2H-1,4-benzodiazepine-2-one], the ED50 in [1] (setting [12]) was 19.5 mg/kg; in [5] (setting [14]) it was 20 mg/kg. In addition, the LD50 at 168 h in data set [2] (ip, read-out: LD50 i.p.) was determined as 936 mg/kg. The “Hexobarbital potentiation, %” value in [3] is listed as 75%.
In the case of `CNC(=O)N1CC(=O)Nc2ccccc2C1c1ccccc1` (centres unmarked) [Example 15, 4-Methylcarbamoyl-5-phenyl-1,3,4,5-tetrahydro-2H-1,4-benzodiazepine-2-one], the ED50 in data set [1] (setting [12]) and in [5] (setting [14]) was 20 mg/kg each time. The LD50 at 168 h in data set [2] (ip, read-out: LD50 i.p.) was more than 500 mg/kg. For the same compound, the “Hexobarbital potentiation, %” value in data set [3] was 93%.
As for `CNC(=O)N1CC(=O)Nc2ccc(Cl)cc2C1c1ccccc1` (centres unmarked) [Example 16, 4-Methylcarbamoyl-5-phenyl-7-chloro-1,3,4,5-tetrahydro-2H-1,4-benzodiazepine-2-one], the values for the ED50 in data set [1] (setting [12]) and in [5] (setting [14]) were 4.1 mg/kg and 14 mg/kg, respectively. Further, in data set [2] (ip, read-out: LD50 i.p.), the 50% lethal dose (LD50) at 168 h worked out at 800 mg/kg. Besides, in data set [3], the “Hexobarbital potentiation, %” value came out at 104%.
As for `CCCCNC(=O)N1CC(=O)Nc2ccc([N+](=O)[O-])cc2C1c1ccccc1` (centres unmarked) [Example 18, 4-n-Butylcarbamoyl-5-phenyl-7-nitro-1,3,4,5-tetrahydro-2H-1,4-benzodiazepine-2-one], the ED50 in data set [1] (setting [12]) was 14 mg/kg; in data set [5] (setting [14]), 20 mg/kg. For the same compound, in data set [2] (ip, read-out: LD50 i.p.), the LD50 at 168 h was determined as 320 mg/kg. Besides, the “Hexobarbital potentiation, %” value in [3] stood at 77%.
For `CC(NC(=O)N1CC(=O)N(C)c2ccc(Cl)cc2C1c1ccccc1)c1ccccc1` (centres unmarked) [Example 24, 1-Methyl-4-(1-methyl-benzylcarbamoyl)-5-phenyl-7-chloro-1,3,4,5-tetrahydro-2H-1,4-benzodiazepine-2-one], the results for the ED50 in data set [1] (setting [12]) and in data set [5] (setting [14]) were 13.5 mg/kg and 20 mg/kg, respectively. In addition, in [2] (ip, read-out: LD50 i.p.), the LD50 at 168 h stood at 271 mg/kg. Besides, in data set [3], the “Hexobarbital potentiation, %” value came out at 96%.
Take `CC(=O)N1CC(=O)N(C)c2ccc(Cl)cc2C1c1ccccc1` (centres unmarked) [Example 28, 1-Methyl-4-acetyl-5-phenyl-7-chloro-1,3,4,5-tetrahydro-2H-1,4-benzodiazepine-2-one]: the ED50 in [1] (setting [12]) turned out to be 7 mg/kg; in data set [5] (setting [14]) it was 20 mg/kg. Also, the LD50 at 168 h in data set [2] (ip, read-out: LD50 i.p.) stood at 312 mg/kg. Moreover, the “Hexobarbital potentiation, %” value in [3] is 125%.
As to `CN1C(=O)CN(C(=O)c2ccccc2Cl)C(c2ccccc2)c2cc(Cl)ccc21` (centres unmarked) [Example 31, 1-Methyl-4-(o-chlorobenzoyl)-5-phenyl-7-chloro-1,3,4,5-tetrahydro-2H-1,4-benzodiazepine-2-one], the ED50 in data set [1] (setting [12]) is 14 mg/kg; in data set [5] (setting [14]), 20 mg/kg. Further, the LD50 at 168 h in [2] (ip, read-out: LD50 i.p.) was more than 1600 mg/kg. The “Hexobarbital potentiation, %” value in data set [3] came out at 85%.
For `CN1C(=O)CN(C=O)C(c2ccccc2)c2cc(Cl)ccc21` (centres unmarked) [Example 33, 1-Methyl-4-formyl-5-phenyl-7-chloro-1,3,4,5-tetrahydro-2H-1,4-benzodiazepine-2-one], the figures for the ED50 in data set [1] (setting [12]) and in data set [5] (setting [14]) were 3.4 mg/kg and 14 mg/kg, respectively. In addition, the LD50 at 168 h in data set [2] (ip, read-out: LD50 i.p.) came out at 688 mg/kg. Besides, the “Hexobarbital potentiation, %” value in data set [3] was 110%. Moreover, the TD50 at 1 h in data set [4] (setting [13]) is 23 mg/kg.

In general, ED50 refers to the dose that gives a 50% effect, or the effect in half of the subjects. A word on the LD50: it is the dose at which mortality reaches 50%.
